According to PMC7284125, “Identification of annotated bioactive molecules that impair motility of the blood fluke Schistosoma mansoni” (International Journal for Parasitology: Drugs and Drug …, 2020):

What follows are compounds tested on S. mansoni schistosomulae (assay: Phenotypic primary screen assay on schistosomulae (phenotype; viability by methylene blue dye exclusion)). Conditions: Schistosoma mansoni; three-day-old schistosomulae, 10 μM, 24 h; calculated 5 days post compound exposure; read-out: Viability (%).
Format: cell-based
In the case of C#C[C@]1(O)C=C[C@H]2[C@@H]3CCC4=CC(=O)CC[C@@H]4[C@H]3CC[C@@]21CC [Gestodene], the viability at 10 µM is reported as 98%.

What follows are compounds tested against SmD2 (Schistosoma mansoni, UniProt G4LUJ1) (assay: cell-based). Conditions: inhibition of EPN-evoked luminescence, SmD2 expressing HEK293 cells; read-out: IC50.
Sequence of SmD2 (G4LUJ1 entry or part of it): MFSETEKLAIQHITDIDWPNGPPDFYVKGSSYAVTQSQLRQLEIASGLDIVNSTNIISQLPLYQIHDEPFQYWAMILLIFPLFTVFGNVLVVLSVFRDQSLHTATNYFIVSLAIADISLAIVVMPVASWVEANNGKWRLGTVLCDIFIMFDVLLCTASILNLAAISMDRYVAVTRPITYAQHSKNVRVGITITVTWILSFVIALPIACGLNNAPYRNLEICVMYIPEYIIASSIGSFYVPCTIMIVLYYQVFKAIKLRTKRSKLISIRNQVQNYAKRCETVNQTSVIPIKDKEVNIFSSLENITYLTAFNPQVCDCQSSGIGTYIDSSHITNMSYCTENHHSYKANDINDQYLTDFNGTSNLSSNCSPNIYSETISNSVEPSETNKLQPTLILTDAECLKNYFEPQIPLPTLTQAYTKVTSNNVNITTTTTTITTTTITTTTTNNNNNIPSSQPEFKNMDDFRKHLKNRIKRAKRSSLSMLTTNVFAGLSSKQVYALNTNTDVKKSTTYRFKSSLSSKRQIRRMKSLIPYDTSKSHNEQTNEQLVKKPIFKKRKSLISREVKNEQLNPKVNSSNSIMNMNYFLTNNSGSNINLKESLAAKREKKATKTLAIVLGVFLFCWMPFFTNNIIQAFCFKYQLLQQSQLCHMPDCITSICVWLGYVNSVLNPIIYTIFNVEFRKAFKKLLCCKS
Format: cell-based
Work on O=C(CCCN1CCC2(CC1)C(=O)NCN2c1ccccc1)c1ccc(F)cc1 [spiperone] yielded an IC50 of 1510 nM.
CC(=O)Nc1ccc(CCNCC(O)COc2cccc3ccccc23)cc1 (stereo not shown) [compound 31] gave an IC50 of 21.7 nM.
For COc1ccc(CCNCC(O)COc2ccccc2C2CC3CCC2C3)cc1OC (stereo not shown) [compound 28], the IC50 was 27.2 nM.
Compound OC(CNCCc1ccccc1)COc1ccccc1C1CCCCC1 (stereo not shown) [compound 35] has an IC50 of 12.3 nM.

Same assay, conditions: luminescent cAMP signal, agonist
CNCCc1ccc(O)c(O)c1 [EPN, epinine] was tested, and the EC50 was 2520 ± 1120 nM.

The compounds below were run on S. mansoni schistosomulae (assay: Motility assay on schistosomulae (pixel displacement, relative to DMSO control)). Conditions: NPS-2143 and analogs, 24h, D1, 10 µM.
Format: cell-based, Schistosoma mansoni
Outline: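 Motility was scored by pixel displacement from 1-min videos (10 frames/s) and compared with DMSO controls. Schistosomulae (200/well, Opti-MEM, 5% dialyzed FBS, no antibiotics) received compound at 1 or 10 μM for 24 h; selected hits were also followed at 1, 3, 6 and 12 h.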
Compound CC(=O)Nc1ccc(CCNCC(O)COc2cccc3ccccc23)cc1 (stereo not shown) [compound 31] has a Fractional motility of -0.82.
In the case of COc1ccc(CCNCC(O)COc2ccccc2C2CC3CCC2C3)cc1OC (stereo not shown) [compound 28], the Fractional motility is reported as -1.00.
OC(CNCCc1ccccc1)COc1ccccc1C1CCCCC1 (stereo not shown) [compound 35] showed a Fractional motility of -0.99.

Same assay, conditions: NPS-2143 and analogs, 24h, D5, 10 µM
With CC(=O)Nc1ccc(CCNCC(O)COc2cccc3ccccc23)cc1 (stereo not shown) [compound 31] the Fractional motility was -0.79.
Work on COc1ccc(CCNCC(O)COc2ccccc2C2CC3CCC2C3)cc1OC (stereo not shown) [compound 28] yielded a Fractional motility of -1.00.

Same assay, conditions: Schistosoma mansoni, 120 h; NPS-2143 and analogs, 24h, D5, 1 µM; read-out: Fractional motility
CC(=O)Nc1ccc(CCNCC(O)COc2cccc3ccccc23)cc1 (stereo not shown) [compound 31] was tested, and the activity at 1 µM was -34%.
COc1ccc(CCNCC(O)COc2ccccc2C2CC3CCC2C3)cc1OC (stereo not shown) [compound 28] showed an activity at 1 µM of -67%.

Same assay, conditions: Schistosoma mansoni, 120 h; schistosomulae, secondary screen, 24h exposure, read at D5, 1 µM; read-out: Fractional motility
With C#C[C@]1(O)C=C[C@H]2[C@@H]3CCC4=CC(=O)CC[C@@H]4[C@H]3CC[C@@]21CC [Gestodene] the activity at 1 µM was -29%.

Same assay, conditions: Schistosoma mansoni; NPS-2143 and analogs, 24h, D1, 1 µM; read-out: Fractional motility
In the case of CC(=O)Nc1ccc(CCNCC(O)COc2cccc3ccccc23)cc1 (stereo not shown) [compound 31], the activity at 1 µM is reported as -69%.
With COc1ccc(CCNCC(O)COc2ccccc2C2CC3CCC2C3)cc1OC (stereo not shown) [compound 28] the activity at 1 µM was -69%.

Same assay, conditions: Schistosoma mansoni; schistosomulae, secondary screen, 24h exposure, read at D1, 1 µM; read-out: Fractional motility
Work on C#C[C@]1(O)C=C[C@H]2[C@@H]3CCC4=CC(=O)CC[C@@H]4[C@H]3CC[C@@]21CC [Gestodene] yielded an activity at 1 µM of 51%.

Same assay, conditions: schistosomulae, 1h exposure, read at D1, 10 µM
O=[N+]([O-])c1ccc2c(c1)S(=O)(=O)C=C2 [Stattic] was tested, and the Fractional motility was -0.71.

Same assay, conditions: schistosomulae, 1h exposure, read at D5, 10 µM
O=[N+]([O-])c1ccc2c(c1)S(=O)(=O)C=C2 [Stattic] was tested, and the Fractional motility was -0.69.

Same assay, conditions: schistosomulae, 3h exposure, read at D1, 10 µM
O=[N+]([O-])c1ccc2c(c1)S(=O)(=O)C=C2 [Stattic] was tested, and the Fractional motility was -0.97.

Same assay, conditions: schistosomulae, 3h exposure, read at D5, 10 µM
Compound O=[N+]([O-])c1ccc2c(c1)S(=O)(=O)C=C2 [Stattic] has a Fractional motility of -1.00.

Same assay, conditions: schistosomulae, 6h exposure, read at D1, 10 µM
With O=[N+]([O-])c1ccc2c(c1)S(=O)(=O)C=C2 [Stattic] the Fractional motility was -0.91.

Same assay, conditions: schistosomulae, 6h exposure, read at D5, 10 µM
Compound O=[N+]([O-])c1ccc2c(c1)S(=O)(=O)C=C2 [Stattic] has a Fractional motility of -0.99.

Same assay, conditions: schistosomulae, secondary screen, 24h exposure, read at D1, 1 µM
O=[N+]([O-])c1ccc2c(c1)S(=O)(=O)C=C2 [Stattic] showed a Fractional motility of 0.84.

Same assay, conditions: schistosomulae, secondary screen, 24h exposure, read at D1, 10 µM
Compound O=[N+]([O-])c1ccc2c(c1)S(=O)(=O)C=C2 [Stattic] has a Fractional motility of 1.23.
Compound C#C[C@]1(O)C=C[C@H]2[C@@H]3CCC4=CC(=O)CC[C@@H]4[C@H]3CC[C@@]21CC [Gestodene] has a Fractional motility of 4.27.

Same assay, conditions: schistosomulae, secondary screen, 24h exposure, read at D5, 1 µM
O=[N+]([O-])c1ccc2c(c1)S(=O)(=O)C=C2 [Stattic] gave a Fractional motility of -0.47.

Same assay, conditions: schistosomulae, secondary screen, 24h exposure, read at D5, 10 µM
For O=[N+]([O-])c1ccc2c(c1)S(=O)(=O)C=C2 [Stattic], the Fractional motility was -0.96.
C#C[C@]1(O)C=C[C@H]2[C@@H]3CCC4=CC(=O)CC[C@@H]4[C@H]3CC[C@@]21CC [Gestodene] showed a Fractional motility of -0.32.

These compounds were tested on naïve Glo HEK293 cells (no receptor) (assay: cAMP luminescence (GloSensor) assay on naïve Glo HEK293 cells (no receptor)). Conditions: 20 μM forskolin.
Format: cell-based, human
Method: The SmGPR2 sequence previously identified ([El-Shehabi and Ribeiro, 2010]) was codon optimized for mammalian expression and subcloned in the vector pCI-neo (Addgene, USA) using the XbaI and NotI restriction enzymes. A FLAG fusion tag ([…]) was introduced at the N-terminal end of the receptor sequence. Stable transfection of HEK293 cells (ATCC; CRL-1573) was performed using the X-tremeGENE 9 DNA transfection reagent (Sigma Aldrich). Cells were then cultured at 37 °C, 5% CO2 in Opti-MEM supplemented with 5% FBS and maintained in 400 μg/mL G418 (Sigma Aldrich) for selection of transformants. […] All cell lines expressing S. mansoni GPCRs were then transfected with the GloSensor encoding plasmid p22F (Promega) and media was supplemented with 100 μg/mL hygromycin for stable expression (ThermoFisher).
Adherent HEK293 cells were seeded at a density of 5 x 10^4 cells/well (96-well plate) in Opti-MEM without FBS or antibiotics and incubated overnight at 37 °C and 5% CO2 prior to the assay. In place of the media, 100 μL HBSS supplemented with 0.1% bovine serum albumin (BSA), 500 μM 3-isobutyl-1-methylxanthine (IBMX, Sigma Aldrich), 20 mM HEPES (pH 7.4) and 1 mg/mL D-luciferin (Goldbio) was added to each well. After a 2 h incubation period at room temperature, luminescence background was recorded, and compounds and control ligands were added at 10X concentration. Immediately after compound addition, luminescence was read over a 45 min period to detect compounds stimulating cAMP release through receptor activation. […] For each assay, luminescence responses were recorded in triplicate and repeated with four independant cell batches. Compounds were also added to naïve Glo HEK293 cells (no receptor) and the robustness of the assay was calculated as: Z^'=1−3×(SDmax+SDmin)/Meanmax−Meanmin with max and min referring respectively to cells expressing GPCRs and Glo (no receptor) cells. Cellular viability was assessed using a CellTiter Glo 2.0 kit (Promega). Glo cells were exposed to 10 μM of each hit compound for 3 h in Opti-MEM at 37 °C, 5% CO2. An equimolar concentration of tamoxifen (Sigma Aldrich) was used as a positive control. 2X cell lysis media was then added and end-point luminescence recorded after a 10 min stabilization time.
For O=[N+]([O-])c1ccc2c(c1)S(=O)(=O)C=C2 [Stattic], the “effect on luminescence evoked by forskolin” value was “significant decrease in luminescence”.

What follows are compounds tested on S. mansoni schistosomulae (assay: Phenotypic primary screen assay on schistosomulae (phenotype; viability by methylene blue dye exclusion)). Conditions: three-day-old schistosomulae, 10 μM, 24 h; calculated 5 days post compound exposure.
Format: cell-based, Schistosoma mansoni
Outline: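 Parasites lacking contraction/relaxation cycles and showing dark internal granulations counted as dead. Movement and body shape were compared with DMSO-treated controls under a stereo microscope at 24 h and at five days of exposure. Larvae came from infected snails shed under light for 2 h at 32 °C.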
In the case of O=[N+]([O-])c1ccc2c(c1)S(=O)(=O)C=C2 [Stattic], the “Viability (%)” value is reported as 0%.

Same assay, conditions: three-day-old schistosomulae, 10 μM, 24 h; estimated 5 days post compound exposure
For O=[N+]([O-])c1ccc2c(c1)S(=O)(=O)C=C2 [Stattic], the Phenotype was “big, dark, granulated”.
In the case of C#C[C@]1(O)C=C[C@H]2[C@@H]3CCC4=CC(=O)CC[C@@H]4[C@H]3CC[C@@]21CC [Gestodene], the Phenotype is reported as “granulated”.

Each compound was assayed on S. mansoni adult worms (assay: Motility assay on adult parasites (pixel displacement, relative to DMSO control)). Conditions: secondary screen, 10 μM, D1, Female adult worms.
Format: cell-based, Schistosoma mansoni
Outline: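 Unpaired adult worms from mice 6 weeks post-infection kept in OPTI-MEM with 5% dialyzed FBS and exposed to compounds at 1 and 10 μM for 24 h. Motility filmed 1 min at 10 frames/s, quantified by pixel displacement versus DMSO-treated worms; recovery followed up to five days after washout.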
Work on O=[N+]([O-])c1ccc2c(c1)S(=O)(=O)C=C2 [Stattic] yielded a Fractional motility of 0.39.
Work on C#C[C@]1(O)C=C[C@H]2[C@@H]3CCC4=CC(=O)CC[C@@H]4[C@H]3CC[C@@]21CC [Gestodene] yielded a Fractional motility of 1.24.

Same assay, conditions: secondary screen, 10 μM, D1, Male adult worms
For O=[N+]([O-])c1ccc2c(c1)S(=O)(=O)C=C2 [Stattic], the Fractional motility was -0.03.
For C#C[C@]1(O)C=C[C@H]2[C@@H]3CCC4=CC(=O)CC[C@@H]4[C@H]3CC[C@@]21CC [Gestodene], the Fractional motility was 3.68.

Same assay, conditions: secondary screen, 10 μM, D5, Female adult worms
For O=[N+]([O-])c1ccc2c(c1)S(=O)(=O)C=C2 [Stattic], the Fractional motility was -0.90.

Same assay, conditions: secondary screen, 10 μM, D5, Male adult worms
O=[N+]([O-])c1ccc2c(c1)S(=O)(=O)C=C2 [Stattic] showed a Fractional motility of 0.23.

Each compound was assayed against Sm5HTR (Schistosoma mansoni, UniProt G4V5G4) (assay: cAMP luminescence (GloSensor) assay, HEK293 cells expressing Sm5HTR). Conditions: compound incubation followed by 50 μM 5-HT.
Sequence of Sm5HTR (G4V5G4 entry or part of it): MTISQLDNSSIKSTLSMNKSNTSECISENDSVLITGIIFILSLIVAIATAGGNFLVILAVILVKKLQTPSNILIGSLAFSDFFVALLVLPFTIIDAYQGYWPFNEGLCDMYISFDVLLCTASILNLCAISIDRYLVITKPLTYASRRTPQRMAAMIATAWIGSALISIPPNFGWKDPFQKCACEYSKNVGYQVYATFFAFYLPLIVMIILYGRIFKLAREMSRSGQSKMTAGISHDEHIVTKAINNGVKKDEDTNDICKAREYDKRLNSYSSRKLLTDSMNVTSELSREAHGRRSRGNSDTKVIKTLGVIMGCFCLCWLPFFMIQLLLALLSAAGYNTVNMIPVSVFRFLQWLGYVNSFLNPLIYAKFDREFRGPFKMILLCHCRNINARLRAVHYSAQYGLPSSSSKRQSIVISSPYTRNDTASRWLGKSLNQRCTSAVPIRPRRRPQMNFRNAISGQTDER
Format: cell-based, S. mansoni
In the case of O=[N+]([O-])c1ccc2c(c1)S(=O)(=O)C=C2 [Stattic], the “inhibition of Sm5HTR 5-HT-evoked signals” value is reported as ≥ 50%.
